Experimental data: patent US20260098061A1, “EPHA2-BINDING PENDING PEPTIDE AND COMPOSITION COMPRISING SAME” (PeptiDream Inc., priority 2022, published 2026)
pKd: −log10 of the molar value. Numbered stars: 1 amine (or outer) side, 2 acyl side, 3 side chain; on linkers, the order of the positions; unused ones are H or OH. Bridge positions count the residues as written; N and C are the ends. Square brackets hold non-standard residues; d marks the D form. Side chains are listed from the residue outwards. Peptide text beside a SMILES is read from it. * marks the point of attachment. X1 = CC(C)C[C@H](CC(=O)[C@H](CC(N)=O)N[*:1])C(=O)[*:2]; Piperazinyl(4-CH2COOH) = O=C(O)CN1CCN(*)CC1; Trp(1-Me) = Cn1cc(C[C@H](N)C(=O)O)c2ccccc21; NMe3Pal = CN[C@@H](Cc1cccnc1)C(=O)O; NMeF = CN[C@@H](Cc1ccccc1)C(=O)O; NMeE = CN[C@@H](CCC(=O)O)C(=O)O; Aad = N[C@@H](CCCC(=O)O)C(=O)O; CO = O=C([*:1])[*:2]; βAla = NCCC(=O)O

Target: T1, Recombinant Human EphA2 Fc Protein (Homo sapiens, UniProt P29317)
T1 construct: purchased Elabscience
Assay: SPR interaction analysis (Biacore T200), kinetics of peptides against EphA2
Format: binding
Settings: Recombinant Human EphA2 Fc Protein captured by Human Antibody Capture kit; single-cycle kinetics; 25° C.; HBS-P+ buffer with 1% DMSO
Description: Example 14 Interaction Analysis by SPR was Performed Using Biacore (Cytiva)
SPR assay was performed using Biacore T200 (Cytiva).
The HBS-P+ buffer (10 mM HEPES (pH7.4), 150 mM NaCl, 0.05% (v/V) Surfactant P20) containing 1% DMSO was used as running buffer. Recombinant Human EphA2 Fc Protein (Fc tag, Elabscience) was captured by Human Antibody Capture kit (Cytiva). Peptide samples in DMSO were diluted with running buffer, and prepared five serial dilutions. Using these serial dilutions, kinetics of peptides against EphA2 was measured at a flow rate of 30 mL/min at 25° C. The method adopted for sample measurement was a single-cycle kinetics method. The analysis was conducted using the evaluation software 3.0 provided with Biacore T200. Kinetics fitting was done on the difference data obtained by subtracting the baseline data from sample measurement data. KD values were calculated based on the association rate constant (ka) and dissociation rate constant (kd).

Compound	pKd
CC(C)C[C@@H]1NC(=O)[C@H](CC(N)=O)NC(=O)[C@H](Cc2ccccc2)N(C)C(=O)[C@@H](C)NC(=O)CSC[C@@H](C(N)=O)NC(=O)[C@H](CCC(=O)O)NC(=O)[C@H]([C@@H](C)O)NC(=O)[C@H](Cc2cn(C)c3ccccc23)NC(=O)[C@H](C(C)C)NC(=O)[C@H](Cc2cn(C)c3ccccc23)NC(=O)[C@H](Cc2ccccc2)N(C)C(=O)[C@H](CCCC(=O)O)NC1=O [PDC_EphA2-00001417, da-MeF-N-L-Hgl-MeF-W1Me-V-W1Me-T-E-C-NH2] ({CH2CO}-[dA][NMeF]NL[Aad][NMeF][Trp(1-Me)]V[Trp(1-Me)]TEC-NH2; thioether N-12)	8.00 to 9.00
CC(=O)NCCCC[C@@H](NC(=O)CCNC(=O)[C@@H]1CSCC(=O)N[C@H](CCCCNC(=O)N2CCN(CC(=O)O)CC2)C(=O)N(C)[C@@H](Cc2cccnc2)C(=O)N[C@@H](CC(N)=O)C(=O)N[C@@H](CC(C)C)C(=O)N[C@@H](CCCC(=O)O)C(=O)N(C)[C@@H](Cc2ccccc2)C(=O)N[C@@H](Cc2cn(C)c3ccccc23)C(=O)N[C@@H](C(C)C)C(=O)N[C@@H](Cc2cn(C)c3ccccc23)C(=O)N[C@@H]([C@@H](C)O)C(=O)N[C@@H](CCC(=O)O)C(=O)N1)C(N)=O [PDC_EphA2-00008084, dkCOpipzaa-Me3Py-N-L-Hgl-MeF-W1Me-V-W1Me-T-E-C-bA-dkAc-NH2] ({CH2CO}-[dK]([CO-Piperazinyl(4-CH2COOH)])[NMe3Pal]NL[Aad][NMeF][Trp(1-Me)]V[Trp(1-Me)]TEC[βAla][dK](Ac)-NH2; thioether N-12)	8.00 to 9.00

Now from value to molecule:

pKd	Compound
> 9.00	CC(=O)NCCCC[C@@H](NC(=O)CCNC(=O)[C@@H]1CSCC(=O)N[C@H](C)C(=O)N(C)[C@@H](Cc2cccnc2)C(=O)N[C@@H](CC(N)=O)C(=O)N[C@@H](CC(C)C)C(=O)N[C@@H](CCCC(N)=O)C(=O)N(C)[C@@H](CCC(=O)O)C(=O)N[C@@H](Cc2cn(C)c3ccccc23)C(=O)N[C@@H](CCCCNC(=O)N2CCN(CC(=O)O)CC2)C(=O)N[C@@H](Cc2cn(C)c3ccccc23)C(=O)N[C@@H]([C@@H](C)O)C(=O)N[C@@H](CCCC(N)=O)C(=O)N1)C(N)=O [PDC_EphA2-00007196, da-Me3Py-N-L-Hgn-MeE-W1Me-KCOpipzaa-W1Me-T-Hgn-C-bA-dkAc-NH2] ({CH2CO}-[dA][NMe3Pal]NL[Aad](NH2)[NMeE][Trp(1-Me)]K([CO-Piperazinyl(4-CH2COOH)])[Trp(1-Me)]T[Aad](NH2)C[βAla][dK](Ac)-NH2; thioether N-12)
> 9.00	CC(=O)NCCCC[C@@H](NC(=O)CCNC(=O)[C@@H]1CSCC(=O)N[C@H](C)C(=O)N(C)[C@@H](Cc2ccccc2)C(=O)N[C@@H](CC(N)=O)C(=O)N[C@@H](CC(C)C)C(=O)N[C@@H](CCCC(=O)O)C(=O)N(C)[C@@H](Cc2ccccc2)C(=O)N[C@@H](Cc2cn(C)c3ccccc23)C(=O)N[C@@H](C(C)C)C(=O)N[C@@H](Cc2cn(C)c3ccccc23)C(=O)N[C@@H]([C@@H](C)O)C(=O)N[C@@H](CCC(=O)O)C(=O)N1)C(N)=O [PDC_EphA2-00008082, da-MeF-N-L-Hgl-MeF-W1Me-V-W1Me-T-E-C-bA-dkAc-NH2] ({CH2CO}-[dA][NMeF]NL[Aad][NMeF][Trp(1-Me)]V[Trp(1-Me)]TEC[βAla][dK](Ac)-NH2; thioether N-12)
> 9.00	CC(=O)NCCCC[C@@H](NC(=O)CCNC(=O)[C@@H]1CSCC(=O)N[C@H](C)C(=O)N(C)[C@@H](Cc2cccnc2)C(=O)N[C@@H](CC(N)=O)C(=O)C[C@@H](CC(C)C)C(=O)N[C@@H](CCCC(=O)O)C(=O)N(C)[C@@H](Cc2ccccc2)C(=O)N[C@@H](Cc2cn(C)c3ccccc23)C(=O)N[C@@H](C(C)C)C(=O)N[C@@H](Cc2cn(C)c3ccccc23)C(=O)N[C@@H]([C@@H](C)O)C(=O)N[C@@H](CCC(=O)O)C(=O)N1)C(N)=O [PDC_EphA2-00008083, da-Me3Py-N-L-Hgl-MeF-W1Me-V-W1Me-T-E-C-bA-dkAc-NH2] ({CH2CO}-[dA][NMe3Pal][X1][Aad][NMeF][Trp(1-Me)]V[Trp(1-Me)]TEC[βAla][dK](Ac)-NH2; thioether N-11)
